Data published in patent US20250270208A1, “BICYCLIC HETEROCYCLES AS MRGPRX2 ANTAGONISTS” (Incyte Corporation, priority 2023, published 2025).

How the values were obtained:
Format in all cases: cell-based
[1] = target: T1, MRGPRX2 (Homo sapiens, UniProt Q96LB1); experiment: MRGPRX2 FLIPR calcium mobilization assay; design: host or cells: CHO-K1; details: CHO-K1 cells stably expressing human MRGPRX2; Ca2+ release; agonist Cortistatin-14 at EC80
T1 sequence (Q96LB1 1-330): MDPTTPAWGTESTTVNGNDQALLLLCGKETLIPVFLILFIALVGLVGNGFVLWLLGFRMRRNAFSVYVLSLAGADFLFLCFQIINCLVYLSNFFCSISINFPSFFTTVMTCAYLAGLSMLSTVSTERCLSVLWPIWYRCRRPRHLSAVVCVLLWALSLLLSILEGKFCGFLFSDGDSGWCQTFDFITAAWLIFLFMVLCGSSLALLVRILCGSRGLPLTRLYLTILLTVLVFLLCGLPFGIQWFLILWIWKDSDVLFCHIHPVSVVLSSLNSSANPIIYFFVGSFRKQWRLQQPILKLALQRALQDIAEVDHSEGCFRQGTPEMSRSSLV
Protocol: Chinese hamster ovary (CHO-K1) cells stably expressing human MRGPRX2 were purchased from Genescript (Piscataway, NJ). The cells were maintained in culture medium (Ham's F-12K) containing 10% (v/v) FBS, 200 μg/mL Zeocin, 100 units/mL penicillin G and 100 μg/mL streptomycin (Life Technologies, Carlsbad, CA). For the assay, the cells were harvested and resuspended with culture medium without Zeocin before plating at 8000 cells per well in 20 μL in 384-well black clear bottom cell culture plates (VWR, Radnor, PA). After 24 hour culture at 37° C. and 5% CO2, the cells were loaded with 20 μL/well of calcium dye (FLIPR Calcium 6 Assay Kit, Molecular Devices, San Jose, CA) diluted in loading buffer (1× Hank's Balanced Salt Solution (HBSS), 5 mM probenecid, 20 mM 4-(2-hydroxyethyl)-1-piperazineethanesulfonic acid (HEPES), pH 7.4, VWR, Radnor, PA) followed with 45 min incubation at 37° C. and 40 min. at r.t. in the dark. Cells were then treated with the addition of 10 uL/well test compounds with a range of increasing concentrations diluted in the assay buffer (1×HBSS, 20 mM HEPES, pH 7.4, VWR, Radnor, PA) with FLIPR Penta (Molecular Devices. San Jose, CA) and incubated for 30 min. at r.t. Ca^2+ release was measured with FLIPR Penta with 10 s basal fluorescence measurement, then 12.5 μL of 5× agonist Cortistatin-14 (Tocris, Minneapolis, MN) at final concentration corresponding to the EC80 were added followed with continued fluorescence signal monitoring for an additional 110 s. The base line adjusted (median of first 10 s base line) max value of the Relative Fluorescence Unit (RFU) was plotted against compound concentrations. Wells with no compound were served as the positive controls, and wells with high concentration of reference antagonist were used as negative controls. IC50 curves were globally fitted with 3- or 4-parameter Hill equation in a Genedata Screener (Genedata Basel, Switzerland).

[2] = target: T1, MRGPRX2; experiment: MRGPRX2 IP1 HTRF assay; design: host or cells: CHO-K1; details: CHO-K1 cells stably expressing human MRGPRX2; IP1 accumulation; agonist Cortistatin 14 1 μM
Protocol: This assay measures compound inhibition of myo-Inositol 1 phosphate (IP1) accumulation in CHO-K1 cells. Chinese hamster ovary (CHO-K1) cells stably expressing human MRGPRX2 were purchased from GenScript (Piscataway, NJ).
For the HTRF IP1 determination, an IP-One GqKit (Perkin Elmer Cisbio, Waltham, MA), which includes all reagents and buffers in this protocol, was used. The cells were maintained in culture medium (Ham's F-12K) containing 10% (v/v) FBS, and 200 μg/mL Zeocin. For the assay, the cells were harvested and resuspended in culture medium with 2% FBS and without Zeocin, then were passed through a 40 μm filter. Cells were added at 20000 cells in a 5 μL/well to a 384-well white small volume cell culture plate (Greiner VWR, Radnor, PA) which contained 50 nL/well of test compound serially diluted at a selected concentration range in DMSO. 5 μL/well of prepared 2× Stimulation Buffer 2 was then added to plates and was incubated at 37° C. with 5% CO2 for 1 h. 5 μL/well of agonist Cortistatin 14 (Bio-TechneR&D Systems, Minneapolis, MN) in 1× Stimulation Buffer 2, for a 1 μM final concentration, was then added to plates and incubated at 37° C. with 5% CO2 for 1 h. 6 μL/well of 1:20 diluted Detection Reagent Mix (d2 and Cryptate) was added to the plates and incubated for 1 h in the dark. Plates were read on the PHERAstar microplate reader (BMG Labtech Cary, NC) to determine the HTRF ratio of the acceptor and donor emission signals. The IP1 concentrations were calculated from a standard curve following the IP-One GQ kit instructions. Wells with DMSO only and wells with high concentration of reference antagonist were used as controls for normalization. Compound IC50 curves were globally fitted with 3- or 4-parameter Hill equation in a Genedata Screener (Genedata Basel, Switzerland).

[3] = target: T1, MRGPRX2; experiment: MRGPRX2 β-Arrestin assay; design: host or cells: PathHunter CHO-K1; details: PathHunter CHO-K1 MRGPRX2 β-Arrestin cell line; agonist Cortistatin 14 0.25 μM
From the text: This assay measures compound inhibition of β-Arrestin recruitment, which is part of the G protein-independent pathway that results from the ligand-activated GPCR phosphorylation by specific GPCR kinases. The PathHunter CHO-K1 MRPGRX2 β-Arrestin Cell line stably expressing ProLink tagged MRGPRX2 and Enzyme Acceptor Tagged β-Arrestin was purchased from Eurofins DiscoverX, (Fremont, CA).
The cells were maintained in culture medium from the Europhins DiscoverX Cell Culture Kit-107 which includes FBS, hygromycin B and G418. For the assay, the cells were harvested and were resuspended with Cell Plating Reagent 2 (Eurofins DiscoverX). Cells were added 10000 cells in 25 μL/well to a 384-well black cell culture plate (Greiner VWR, Radnor, PA) which contained 125 nL/well of compound at a selected serially diluted concentration range or DMSO. The plate was incubated at 37° C. with 5% CO2 for 1 h. 2 μL/well of agonist Cortistatin 14 was diluted in Protein Dilution Buffer, (Eurofins DiscoverX) for a final concentration of 0.25 μM, was added and the plate was incubated at 37° C. with 5% CO2 for 90 min. 14 μL/well of Detection Reagent Mix (PathHunter Detection Kit, Eurofins DiscoverX) was added to the plates and further incubated for 1 h in the dark. Plates were read on the PHERAstar microplate reader (BMG Labtech Cary, NC) measuring luminescence 0.1 to 1 s per well. Data was normalized using DMSO only wells and wells with high concentration of reference antagonist as controls. Compound IC50 curves were globally fitted with 3- or 4-parameter Hill equation in a Genedata Screener (Genedata Basel, Switzerland).

Row | IC50 [1] [nM] | IC50 [2] [nM] | IC50 [3] [nM] | Compound
1 | 0.1 to 100 | 0.1 to 100 | 0.1 to 100 | Cn1cnc2ccnc(N[C@@H]3CCC[C@H](Nc4cc(C(F)(F)F)nc5ccc(Cl)cc45)C3)c21 [Example 4, (1S,3R)-N^1-(6-Chloro-2-(trifluoromethyl)quinolin-4-yl)-N^3-(3-methyl-3H-imidazo[4,5-c]pyridin-4-yl)cyclohexane-1,3-diamine]
2 | 0.1 to 100 | 0.1 to 100 | 0.1 to 100 | Cn1c(N[C@@H]2CCC[C@H](Nc3cc(C(F)(F)F)nc4ccc(Cl)cc34)C2)nc2cccnc21 [Example 21, (1S,3R)-N^1-(6-Chloro-2-(trifluoromethyl)quinolin-4-yl)-N^3-(3-methyl-3H-imidazo[4,5-b]pyridin-2-yl)cyclohexane-1,3-diamine]
3 | 0.1 to 100 | 0.1 to 100 | 0.1 to 100 | FC(F)(F)c1cc(N[C@H]2CCC[C@@H](Nc3ncnc4ncccc34)C2)c2cc(Cl)ccc2n1 [Example 26, (1S,3R)-N^1-(6-Chloro-2-(trifluoromethyl)quinolin-4-yl)-N^3-(pyrido[2,3-d]pyrimidin-4-yl)cyclohexane-1,3-diamine]
4 |  | 0.1 to 100 | 0.1 to 100 | FC(F)(F)c1cc(N[C@H]2CCC[C@@H](Nc3nccc4nccn34)C2)c2cc(Cl)ccc2n1 [Example 18, (1S,3R)-N^1-(6-Chloro-2-(trifluoromethyl)quinolin-4-yl)-N^3-(imidazo[1,2-c]pyrimidin-5-yl)cyclohexane-1,3-diamine]
5 | 0.1 to 100 | 0.1 to 100 | 0.1 to 100 | FC(F)(F)c1cc(N[C@H]2CCC[C@@H](Nc3nnc4n3CCCC4)C2)c2cc(Cl)ccc2n1 [Example 35, (1S,3R)-N^1-(6-Chloro-2-(trifluoromethyl)quinolin-4-yl)-N^3-(5,6,7,8-tetrahydro-[1,2,4]triazolo[4,3-a]pyridin-3-yl)cyclohexane-1,3-diamine]
6 | 0.1 to 100 | 0.1 to 100 | 0.1 to 100 | Cn1c(C#N)cnc1N[C@@H]1CCC[C@H](Nc2cc(C(F)(F)F)nc3ccc(Cl)cc23)C1 [Example 20, 2-(((1R,3S)-3-((6-Chloro-2-(trifluoromethyl)quinolin-4-yl)amino)cyclohexyl)amino)-1-methyl-1H-imidazole-5-carbonitrile]
7 | 0.1 to 100 | 100 to 1000 | 0.1 to 100 | Cn1cc2c(N[C@@H]3CCC[C@H](Nc4cc(C(F)(F)F)nc5ccc(Cl)cc45)C3)nccc2n1 [Example 1, (1S,3R)-N^1-(6-Chloro-2-(trifluoromethyl)quinolin-4-yl)-N^3-(2-methyl-2H-pyrazolo[4,3-c]pyridin-4-yl)cyclohexane-1,3-diamine]
8 | 0.1 to 100 | 0.1 to 100 | 0.1 to 100 | FC(F)(F)c1cc(N[C@H]2CCC[C@@H](Nc3nccn4cncc34)C2)c2cc(Cl)ccc2n1 [Example 9, (1S,3R)-N^1-(6-Chloro-2-(trifluoromethyl)quinolin-4-yl)-N^3-(imidazo[1,5-a]pyrazin-8-yl)cyclohexane-1,3-diamine]
9 | 0.1 to 100 | 0.1 to 100 | 0.1 to 100 | Cn1cnc2ccnc(N[C@H]3CC[C@@H](Nc4cc(C(F)(F)F)nc5ccc(F)cc45)CC3)c21 [Example 23, (1s,4s)-N^1-(6-Fluoro-2-(trifluoromethyl)quinolin-4-yl)-N^4-(3-methyl-3H-imidazo[4,5-c]pyridin-4-yl)cyclohexane-1,4-diamine]
10 | 0.1 to 100 | 0.1 to 100 | 0.1 to 100 | Cn1cnc2ccnc(N[C@@H]3CCC[C@H](Nc4cc(C(F)(F)F)nc5ccc(F)cc45)C3)c21 [Example 14, (1S,3R)-N^1-(6-Fluoro-2-(trifluoromethyl)quinolin-4-yl)-N^3-(3-methyl-3H-imidazo[4,5-c]pyridin-4-yl)cyclohexane-1,3-diamine]
11 | 0.1 to 100 | 0.1 to 100 | 0.1 to 100 | FC(F)(F)c1cc(N[C@H]2CC[C@@H](Nc3nccc4ncccc34)CC2)c2cc(Cl)ccc2n1 [Example 13, (1s,4s)-N^1-(6-Chloro-2-(trifluoromethyl)quinolin-4-yl)-N^4-(1,6-naphthyridin-5-yl)cyclohexane-1,4-diamine]
12 | 0.1 to 100 | 0.1 to 100 | 0.1 to 100 | FC(F)(F)c1cc(N[C@H]2CCC[C@@H](Nc3nnc4n3CCOC4)C2)c2cc(Cl)ccc2n1 [Example 36, (1S,3R)-N^1-(6-Chloro-2-(trifluoromethyl)quinolin-4-yl)-N^3-(5,6-dihydro-8H-[1,2,4]triazolo[3,4-c][1,4]oxazin-3-yl)cyclohexane-1,3-diamine]
13 | 0.1 to 100 | 0.1 to 100 | 0.1 to 100 | Cn1ncc2c(N[C@@H]3CCC[C@H](Nc4cc(C(F)(F)F)nc5ccc(Cl)cc45)C3)nccc21 [Example 19, (1S,3R)-N^1-(6-Chloro-2-(trifluoromethyl)quinolin-4-yl)-N^3-(1-methyl-1H-pyrazolo[4,3-c]pyridin-4-yl)cyclohexane-1,3-diamine]
14 | 0.1 to 100 | 0.1 to 100 | 0.1 to 100 | Cn1cnc2ccnc(N[C@@H]3CCC[C@H](Nc4cc(C(F)(F)F)nc5ccc(Br)cc45)C3)c21 [Example 16, (1S,3R)-N^1-(6-Bromo-2-(trifluoromethyl)quinolin-4-yl)-N^3-(3-methyl-3H-imidazo[4,5-c]pyridin-4-yl)cyclohexane-1,3-diamine]
15 | 0.1 to 100 | 100 to 1000 |  | Cn1ncc2ccnc(N[C@@H]3CCC[C@H](Nc4cc(C(F)(F)F)nc5ccc(Cl)cc45)C3)c21 [Example 2, (1S,3R)-N^1-(6-Chloro-2-(trifluoromethyl)quinolin-4-yl)-N^3-(1-methyl-1H-pyrazolo[3,4-c]pyridin-7-yl)cyclohexane-1,3-diamine]
